Measurements reported in patent US20230250106A1, “COMPOUNDS AND COMPOSITIONS FOR TREATING CONDITIONS ASSOCIATED WITH STING ACTIVITY” (IFM Due, Inc., priority 2020, published 2023).

system: STING pathway; assay: STING reporter assay: luciferase reporter activity in THP1-Dual KO-IFNAR2 cells activated with 2'3'cGAMP; assay type: cell-based; conditions: Homo sapiens, 2'3'cGAMP 15 μM, 24 h, read-out: hSTING EC50
Method in brief: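 Luciferase secreted into the supernatant (QUANTI-Luc Plus read-out) was measured after 24 h at 37 °C. This was in THP1-Dual KO-IFNAR2 cells given test compounds (0.0017-100 μM final) plus Lipofectamine-transfected 2′3′cGAMP at 15 μM final; EC50 was then derived.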

Row | EC50 [µM] | SMILES
1 | 0.2 to 1 | O=C(Nc1c[nH]c2cc(F)c(F)cc12)c1ccc(CN2CC(F)C2)c(F)c1 [Compound 260, N-(5,6-difluoro-1H-indol-3-yl)-3-fluoro-4-((3-fluoroazetidin-1-yl)methyl)benzamide]
2 | 0.2 to 1 | COCCOc1ccc(C(=O)Nc2c[nH]c3cc(F)c(F)cc23)cn1 [Compound 157, N-(5,6-difluoro-1H-indol-3-yl)-6-(2-methoxyethoxy)nicotinamide]
3 | 0.2 to 1 | COCCO[C@@H]1CCN(c2ccc(C(=O)Nc3c[nH]c4cc(F)c(F)cc34)cc2F)C1 [Compound 185, (R)-N-(5,6-difluoro-1H-indol-3-yl)-3-fluoro-4-(3-(2-methoxyethoxy)pyrrolidin-1-yl)benzamide]
4 | 0.04 to 0.2 | O=C(Nc1c[nH]c2ccc(Cl)cc12)c1ccc(N2C[C@@H]3[C@@H](COCC(F)(F)F)[C@@H]3C2)c(F)c1 [Compound 225, N-(5-chloro-1H-indol-3-yl)-3-fluoro-4-((1R,5S,6r)-6-((2,2,2-trifluoroethoxy)methyl)-3-azabicyclo[3.1.0]hexan-3-yl)benzamide]
5 | 0.04 to 0.2 | O=C(Nc1c[nH]c2cc(F)c(F)cc12)c1ccc(N2CCC(F)(F)CC2)nc1 [Compound 159, N-(5,6-difluoro-1H-indol-3-yl)-6-(4,4-difluoropiperidin-1-yl)nicotinamide]
6 | 0.2 to 1 | COCCOc1ncc(C(=O)Nc2c[nH]c3cc(F)c(F)cc23)cc1C [Compound 226, N-(5,6-difluoro-1H-indol-3-yl)-6-(2-methoxyethoxy)-5-methylnicotinamide]
7 | 0.2 to 1 | O=C(Nc1c[nH]c2cc(F)c(F)cc12)c1ccc(OC2CCCC2)cc1 [Compound 168, 4-(cyclopentyloxy)-N-(5,6-difluoro-1H-indol-3-yl)benzamide]
8 | 0.2 to 1 | CCC1Cc2ccc(C(=O)Nc3c[nH]c4cc(F)c(F)cc34)cc2C1 (centres unmarked) [Compound 261, N-(5,6-difluoro-1H-indol-3-yl)-2-ethyl-2,3-dihydro-1H-indene-5-carboxamide]
9 | 0.2 to 1 | C[C@@H](c1ccc(C(=O)Nc2c[nH]c3cc(F)c(F)cc23)cc1F)N1CC(F)(F)C1 (single isomer, unassigned) [Compound 244, (R or S)—N-(5,6-difluoro-1H-indol-3-yl)-4-(1-(3,3-difluoroazetidin-1-yl)-1l3-ethyl)-3-fluorobenzamide]
10 | 5 to 100 | O=C(Nc1c[nH]c2cc(F)c(F)cc12)c1ccc(C2(O)CCOCC2)cc1 [Compound 248, N-(5,6-difluoro-1H-indol-3-yl)-4-(4-hydroxytetrahydro-2H-pyran-4-yl)benzamide]
11 | 0.2 to 1 | CC(C)c1nc(-c2ccc(C(=O)Nc3c[nH]c4cc(F)c(F)cc34)cc2)no1 [Compound 267, N-(5,6-difluoro-1H-indol-3-yl)-4-(5-isopropyl-1,2,4-oxadiazol-3-yl)benzamide]
12 | 5 to 100 | O=C(Nc1c[nH]c2cc(F)c(F)cc12)c1ccc(CN2CC(F)(F)C2)nc1 [Compound 273, N-(5,6-difluoro-1H-indol-3-yl)-6-((3,3-difluoroazetidin-1-yl)methyl)nicotinamide]
13 | 5 to 100 | O=C(Nc1c[nH]c2cc(F)c(F)cc12)c1ccnc(CN2CC(F)(F)C2)c1 [Compound 257, N-(5,6-difluoro-1H-indol-3-yl)-2-((3,3-difluoroazetidin-1-yl)methyl)isonicotinamide]
14 | 0.2 to 1 | O=C(Nc1c[nH]c2cc(F)c(F)cc12)c1cccc(-c2noc(C3CC3)n2)c1 [Compound 234, 3-(5-cyclopropyl-1,2,4-oxadiazol-3-yl)-N-(5,6-difluoro-1H-indol-3-yl)benzamide]
15 | 0.2 to 1 | O=C(Nc1c[nH]c2cc(F)c(F)cc12)c1cnc(N2CC3(C2)CC(F)(F)C3)c(Cl)c1 [Compound 101, 5-chloro-N-(5,6-difluoro-1H-indol-3-yl)-6-(6,6-difluoro-2-azaspiro[3.3]heptan-2-yl)nicotinamide]
16 | 0.2 to 1 | O=C(Nc1c[nH]c2cc(F)c(F)cc12)c1cnc(N2CCC(F)(F)CC2)c(Cl)c1 [Compound 156, 5-chloro-N-(5,6-difluoro-1H-indol-3-yl)-6-(4,4-difluoropiperidin-1-yl)nicotinamide]
17 | 0.04 to 0.2 | O=C(Nc1c[nH]c2cc(F)c(F)cc12)c1ccc(C2CCC(F)(F)CC2)cc1 [Compound 158, N-(5,6-difluoro-1H-indol-3-yl)-4-(4,4-difluorocyclohexyl)benzamide]

Row | EC50 [µM] | SMILES
18 | 0.2 to 1 | O=C(Nc1c[nH]c2cc(F)c(F)cc12)c1ccc(OCCOC(F)(F)F)c(F)c1 [Compound 262, N-(5,6-difluoro-1H-indol-3-yl)-3-fluoro-4-(2-(trifluoromethoxy)ethoxy)benzamide]
19 | 1 to 5 | Cc1c(C(=O)Nc2c[nH]c3cc(F)c(F)cc23)ccnc1N1CC(F)(F)C1 [Compound 253, N-(5,6-difluoro-1H-indol-3-yl)-2-(3,3-difluoroazetidin-1-yl)-3-methylisonicotinamide]
20 | 0.2 to 1 | O=C(Nc1c[nH]c2cc(F)ccc12)c1cnc(N2CCC(F)(F)CC2)c(Cl)c1 [Compound 190, 5-chloro-6-(4,4-difluoropiperidin-1-yl)-N-(6-fluoro-1H-indol-3-yl)nicotinamide]
21 | 0.2 to 1 | O=C(Nc1c[nH]c2cc(F)c(F)cc12)c1ccc(OCc2ccccc2)cc1 [Compound 136, 4-(benzyloxy)-N-(5,6-difluoro-1H-indol-3-yl)benzamide]
22 | 0.2 to 1 | Cc1cc(C(=O)Nc2c[nH]c3cc(F)c(F)cc23)cnc1NCCCC(F)(F)F [Compound 191, N-(5,6-difluoro-1H-indol-3-yl)-5-methyl-6-((4,4,4-trifluorobutyl)amino)nicotinamide]
23 | 0.2 to 1 | O=C(Nc1c[nH]c2cc(F)c(F)cc12)c1ccc(OC2CCCCC2)cc1 [Compound 196, 4-(cyclohexyloxy)-N-(5,6-difluoro-1H-indol-3-yl)benzamide]
24 | 0.2 to 1 | O=C(Nc1c[nH]c2cc(F)c(F)cc12)c1ccc(OC(F)(F)F)c(Cl)c1 [Compound 114, 3-chloro-N-(5,6-difluoro-1H-indol-3-yl)-4-(trifluoromethoxy)benzamide]
25 | 0.2 to 1 | CC(O)c1cc(C(=O)Nc2c[nH]c3cc(F)c(F)cc23)ccc1C(F)(F)F (centres unmarked) [Compound 276, N-(5,6-difluoro-1H-indol-3-yl)-3-(1-hydroxyethyl)-4-(trifluoromethyl)benzamide]
26 | 0.2 to 1 | COc1cc(C(=O)Nc2c[nH]c3cc(F)c(F)cc23)ccc1C(F)(F)F [Compound 112, N-(5,6-difluoro-1H-indol-3-yl)-3-methoxy-4-(trifluoromethyl)benzamide]
27 | 1 to 5 | O=C(Nc1c[nH]c2cc(F)c(F)cc12)c1ccc(C2(O)CCC(F)(F)CC2)nc1 [Compound 250, 6-(4,4-difluoro-1-hydroxycyclohexyl)-N-(5,6-difluoro-1H-indol-3-yl)nicotinamide]
28 | 0.2 to 1 | O=C(Nc1c[nH]c2cc(F)c(Cl)cc12)c1ccc(C2(O)CCC(F)(F)CC2)cc1 [Compound 259, N-(5-chloro-6-fluoro-1H-indol-3-yl)-4-(4,4-difluoro-1-hydroxycyclohexyl)benzamide]
29 | 5 to 100 | O=C(Nc1c[nH]c2cc(F)c(F)cc12)c1ccnc(C(O)C(F)(F)F)c1 (centres unmarked) [Compound 235, N-(5,6-difluoro-1H-indol-3-yl)-2-(2,2,2-trifluoro-1-hydroxyethyl)isonicotinamide]
30 | 1 to 5 | Cc1cc(C(=O)Nc2c[nH]c3cc(F)c(F)cc23)cc(C)c1C1CCC(F)(F)CC1 [Compound 278, N-(5,6-difluoro-1H-indol-3-yl)-4-(4,4-difluorocyclohexyl)-3,5-dimethylbenzamide]
31 | 0.2 to 1 | O=C(Nc1c[nH]c2cc(F)c(F)cc12)c1cccc(OC(F)(F)C(F)F)c1 [Compound 117, N-(5,6-difluoro-1H-indol-3-yl)-3-(1,1,2,2-tetrafluoroethoxy)benzamide]
32 | 5 to 100 | COCCNc1cc(C(=O)Nc2c[nH]c3cc(F)c(F)cc23)ccn1 [Compound 238, N-(5,6-difluoro-1H-indol-3-yl)-2-((2-methoxyethyl)amino)isonicotinamide]
33 | 1 to 5 | CCC(O)Cc1ccc(C(=O)Nc2c[nH]c3cc(F)c(F)cc23)cn1 (centres unmarked) [Compound 228, N-(5,6-difluoro-1H-indol-3-yl)-6-(2-hydroxybutyl)nicotinamide]

Row | SMILES | EC50 [µM]
34 | Cc1cc(C(=O)Nc2c[nH]c3cc(F)c(F)cc23)ccc1OCCCC(F)(F)F [Compound 155, N-(5,6-difluoro-1H-indol-3-yl)-3-methyl-4-(4,4,4-trifluorobutoxy)benzamide] | 0.04 to 0.2
35 | O=C(Nc1c[nH]c2ncc(F)cc12)c1ccc(OCCCC(F)(F)F)c(F)c1 [Compound 144, 3-fluoro-N-(5-fluoro-1H-pyrrolo[2,3-b]pyridin-3-yl)-4-(4,4,4-trifluorobutoxy)benzamide] | 1 to 5
36 | O=C(Nc1c[nH]c2cc(F)c(F)cc12)c1ccc(OCCCC(F)(F)F)c(F)c1 [Compound 142, N-(5,6-difluoro-1H-indol-3-yl)-3-fluoro-4-(4,4,4-trifluorobutoxy)benzamide] | 0.2 to 1
37 | COc1ccc2[nH]cc(NC(=O)c3ccc(OCCCC(F)(F)F)c(F)c3)c2n1 [Compound 143, 3-fluoro-N-(5-methoxy-1H-pyrrolo[3,2-b]pyridin-3-yl)-4-(4,4,4-trifluorobutoxy)benzamide] | 1 to 5
38 | O=C(Nc1c[nH]c2cc(F)c(F)cc12)c1ccc(OC2CC(F)(F)C2)cc1 [Compound 109, N-(5,6-difluoro-1H-indol-3-yl)-4-(3,3-difluorocyclobutoxy)benzamide] | 0.2 to 1
39 | O=C(Nc1c[nH]c2cc(F)c(F)cc12)c1ccc(OCCCC(F)(F)F)c(Cl)c1 [Compound 151, 3-chloro-N-(5,6-difluoro-1H-indol-3-yl)-4-(4,4,4-trifluorobutoxy)benzamide] | 0.2 to 1
40 | O=C(Nc1c[nH]c2cc(F)c(F)cc12)c1cccc(OCCCC(F)(F)F)c1 [Compound 171, N-(5,6-difluoro-1H-indol-3-yl)-3-(4,4,4-trifluorobutoxy)benzamide] | 0.2 to 1
41 | N#Cc1ccc2[nH]cc(NC(=O)c3ccc(OCCCC(F)(F)F)c(F)c3)c2c1 [Compound 145, N-(5-cyano-1H-indol-3-yl)-3-fluoro-4-(4,4,4-trifluorobutoxy)benzamide] | 0.2 to 1
